≈ marks a conversion by molar mass, not a printed value. Read-outs that look alike come from different tables or passages of the source.
Legend:
S. pneumoniae isolates = assay: Susceptibility (MIC) testing of trial S. pneumoniae isolates with PCR of resistance mechanism; assay type: cell-based, Streptococcus pneumoniae; conditions: for MIC: Streptococcus pneumoniae
From the text: Samples of middle ear fluid were split for storage at a central laboratory and cultured locally. All pathogens isolated locally were subcultured and sent to a central laboratory for confirmation and susceptibility testing, performed by Kirby-Bauer disk-diffusion or MIC testing according to NCCLS standards.
Polymerase chain reaction (PCR) determination of resistance mechanisms in all the azithromycin-resistant pneumococci was done.
Cultures were taken for antimicrobial susceptibility testing and bacterial species were identified. Current NCCLS approved breakpoints for MICs and zone sizes were applied to all data irrespective of the breakpoint in use at the time of the study. The isolates from the clinical studies were sent to central laboratories for identification and susceptibility determination. The methods for agar diffusion disk tests are those recommended by NCCLS.
The susceptibility breakpoints for azithromycin were defined as follows: […]

H. influenzae [1] = assay: Study 95-001 otitis media caused by H. influenzae; assay type: in vivo, human; conditions: single intramuscular dose 50 mg/kg; 9 patients; follow-up
Method: Specimens for culture and susceptibility testing were obtained from the infected ear by tympanocentesis within 24 h of start of therapy. […] However, the study was evaluated using the breakpoints in the most recent set of guidelines.
To be a bacteriological cure, the MITT subject had to have a positive culture from the middle ear for S. pneumoniae, H influenzae, or M. catarrhalis. Eradication was defined as presumed eradication of pretreatment pathogen(s) based on signs/symptoms or unavailability of culturable material. All evaluable patients had only one of the bacterial species present at baseline. There was no bacteriological response data collected for 95–001. However, the clinical outcome by bacterial pathogen at follow-up (approximately 28 days after first visit) was collected. For patients with S. pneumoniae as the baseline pathogen, all treatment arms yielded 100% clinical cure when the investigators' evaluations that were missing are not included in the analysis. […] The comparator drug, ceftriaxone, had no failures out of 9 patients.

H. influenzae [2] = conditions: cited from earlier work
[3] = tested on: Streptococcus pneumoniae 02J1016; assay: Murine peritonitis model, Streptococcus pneumoniae; assay type: in vivo, mouse; conditions: oral QD
[4] = tested on: Haemophilus influenzae 54A1100; assay: Murine acute infection (peritonitis) model challenged with Haemophilus influenzae; assay type: in vivo, mouse; conditions: for Mice Surviving/Total: Q.D. [1 day]
[5] = tested on: Streptococcus pneumoniae 02J1016; assay: Murine lung (pulmonary/pneumonia) infection model challenged with Streptococcus pneumoniae; assay type: in vivo, mouse
[6] = tested on: Streptococcus pyogenes 02C0203; assay: Murine acute infection (peritonitis) model challenged with Streptococcus pyogenes; assay type: in vivo, mouse
[7] = tested on: Haemophilus influenzae 54A1100; assay: Gerbil middle ear (otitis media) infection model, ED50, H. influenzae 54A1100; assay type: in vivo; conditions: oral QD; gerbil otitis media model
S. pyogenes 02C0203 = assay: MIC determination, S. pyogenes; assay type: cell-based, Streptococcus pyogenes; conditions: listed as Clanthromycin
Method: (§1) MIC Determinations. Streptococcus pneumoniae, S. pyogenes, E. faecalis, and H. influenzae MICs were determined using the broth microdilution procedure recommended by the NCCLS. Test trays were incubated at 35C without carbon dioxide. For testing of streptococci, the cation-adjusted Mueller-Hinton broth was supplemented with 2–3% lysed horse blood. For testing H. influenzae, freshly prepared Haemophilus Test Medium broth was used.
(§2) Bacterial Strains. • S. pneumoniae 02J1016, serotype 3, originally isolated from blood culture (strain P 4241) (MLS- and penicillin-susceptible). • S. pyogenes 02C0203, ATCC 12384, group A, type 3 (MLS-susceptible). • E. faecalis 03A1085, vancomycin susceptible clinically derived strain. • H. influenzae 54A1100, (43095 ATCC Fulghum strain) non-serotype B strain originally isolated from otitis media (macrolide and penicillin susceptible). • H. influenzae 54A1218, clinically derived non-serotype B strain (macrolide-susceptible, penicillin-resistant, TEM-1 beta-lactamase).

H. influenzae 54A1100 = assay: MIC determination, H. influenzae 54A1100; assay type: cell-based, Haemophilus influenzae; conditions: H. influenzae 54A1100
Method: as §1, §2

[8] = oral QD, murine peritonitis model
[9] = 1.56 mg/kg/day P.O., 2 day regimen
[10] = 3.12 mg/kg/day P.O., 1 day regimen
[11] = 6.25 mg/kg/day P.O., 2 day regimen
[12] = 25.0 mg/kg/day P.O., 2 day regimen
[13] = 50.0 mg/kg/day P.O., 1 day regimen
[14] = oral QD, murine pneumonia model

CCC[C@@H]1C[C@@H](C(=O)N[C@@H]([C@H]2O[C@H](SC)[C@H](O)[C@@H](O)[C@H]2O)[C@H](C)Cl)N(C)C1 [clindamycin]
clindamycin MIC (S. pneumoniae isolates; S. pneumoniae strains with erm(B)): 128 µg/mL | MIC (S. pneumoniae isolates; read-out: clindamycin MIC, S. pneumoniae strains confirmed as mef(A)): < 0.06 µg/mL | MIC (S. pneumoniae isolates; read-out: clindamycin MIC, S. pneumoniae strains with erm(B)): > 128 µg/mL

CO/N=C(\C(=O)N[C@@H]1C(=O)N2C(C(=O)O)=C(CSc3nc(=O)c(=O)[nH]n3C)CS[C@H]12)c1csc(N)n1 [Ceftriaxone]
failures (H. influenzae [1]): no failures

CC=CC1=C(C(=O)O)N2C(=O)[C@@H](NC(=O)[C@H](N)c3ccc(O)cc3)[C@H]2SC1 [Cefprozil]
success rate less than control (amoxicillin/clavulanic acid); presumptive bacterial/clinical cure outcomes (i.e., clinical success) at 10–16 days post-therapy (H. influenzae [2]): 17% less than control (amoxicillin/clavulanic

CC[C@H]1OC(=O)[C@H](C)[C@@H](O[C@H]2C[C@@](C)(OC)[C@@H](O)[C@H](C)O2)[C@H](C)[C@@H](O[C@@H]2O[C@H](C)C[C@H](N(C)C)[C@H]2O)[C@](C)(OC)C[C@@H](C)C(=O)[C@H](C)[C@@H](O)[C@]1(C)O [Clarithromycin]
ED50 One-Day Therapy [3]: 99.8 mg/kg/therapy | ED50 Three-Day Therapy [3]: 87.5 mg/kg/therapy | ED50 Two-Day Therapy [3]: 103.0 mg/kg/therapy | Mice Surviving/Total ([4]; 3.12 mg/kg/day): 0/10 | Mice Surviving/Total ([4]; 50 mg/kg/day): 2/10 | Mice Surviving/Total ([4]; 200 mg/kg/day): 0/10 | Oral PD50 ([4]; Dosing Regimen 1 day): >200 mg/kg/day | Mice Surviving/Total ([4]; […]): 0/10 | PD50 ([4]; one therapeutic dose (one day regimen), s.c.): > 200 mg/kg | ED50 One-Day Therapy [4, 8]: >200 mg/kg/therapy | ED50 Three-Day Therapy [4, 8]: >200 mg/kg/therapy | ED50 Two-Day Therapy [4, 8]: >200 mg/kg/therapy | Mice Surviving/Total ([5]; 1.04 mg/kg/day P.O., 3 day regimen): 0/10 | Mice Surviving/Total [5, 9]: 0/10 | Mice Surviving/Total [5, 10]: 0/10 | Mice Surviving/Total ([5]; 4.2 mg/kg/day P.O., 3 day regimen): 0/10 | Mice Surviving/Total [5, 11]: 0/10 | Mice Surviving/Total ([5]; 16.7 mg/kg/day P.O., 3 day regimen): 0/10 | Mice Surviving/Total [5, 12]: 0/10 | Mice Surviving/Total [5, 13]: 1/10 | Mice Surviving/Total ([5]; 66.7 mg/kg/day P.O., 3 day regimen): 2/10 | Mice Surviving/Total ([5]; 100.0 mg/kg/day P.O., 2 day regimen): 1/10 | Mice Surviving/Total ([5]; 200.0 mg/kg/day P.O., 1 day regimen): 4/10 | Oral PD50 ([5]; Dosing Regimen 1 day): >200 mg/kg/day | Oral PD50 ([5]; Dosing Regimen 2 days): >200 mg/kg/day | Oral PD50 ([5]; Dosing Regimen 3 days): >200 mg/kg/day | Mice Surviving/Total ([5]; […] P.O., 1 day regimen): 1/10 | PD50s ([5]; all three q.d. regimens (1, 2, 3 days)): > 200 mg/kg | ED50 One-Day Therapy [5, 14]: 270 mg/kg/therapy | ED50 Three-Day Therapy [5, 14]: 338 mg/kg/therapy | ED50 Two-Day Therapy [5, 14]: 327 mg/kg/therapy | PD50s ([5]; previous data, BID administration over two days of therapy): 5 to 25 mg/kg | Mice Surviving/Total ([6]; 0.20 mg/kg/day P.O., 3 day regimen): 0/10 | Mice Surviving/Total ([6]; 0.39 mg/kg/day P.O., 2 day regimen): 0/10 | Mice Surviving/Total ([6]; 0.78 mg/kg/day P.O., 1 day regimen): 0/10 | Mice Surviving/Total ([6]; 0.78 mg/kg/day P.O., 3 day regimen): 5/10 | Mice Surviving/Total [6, 9]: 8/10 | Mice Surviving/Total [6, 10]: 4/10 | Mice Surviving/Total ([6]; 3.12 mg/kg/day P.O., 3 day regimen): 9/10 | Mice Surviving/Total [6, 11]: 9/10 | Mice Surviving/Total [6, 12]: 8/10 | Mice Surviving/Total [6, 13]: 10/10 | Oral PD50 ([6]; Dosing Regimen 1 day): 11.3 (3.1–19.4) mg/kg/day | Oral PD50 ([6]; Dosing Regimen 2 days): 2.2 (0.9–3.6) mg/kg/day | Oral PD50 ([6]; Dosing Regimen 3 days): 3.1 (2.6–3.7) mg/kg/day | Mice Surviving/Total ([6]; […] P.O., 1 day regimen): 6/10 | Mice Surviving/Total ([6]; […] P.O., 3 day regimen): 10/10 | ED50 One-Day Therapy [6, 8]: 11.7^1 mg/kg/therapy | ED50 Three-Day Therapy [6, 8]: 3.8 mg/kg/therapy | ED50 Two-Day Therapy [6, 8]: 2.5 mg/kg/therapy | ED50 One-Day Therapy [7]: >200 mg/kg/therapy | ED50 Three-Day Therapy [7]: >200 mg/kg/therapy | ED50 Two-Day Therapy [7]: >200 mg/kg/therapy | MIC (S. pyogenes 02C0203): MIC 0.01-0.03 μg/ml | MIC (H. influenzae 54A1100; listed as Clanthromycin): 8 µg/mL (≈ 10.7 µM) | MIC (H. influenzae 54A1100; Haemophilus influenzae, read-out: MIC): 8 µg/mL (≈ 10.7 µM)

— US6987093B2 (priority 2001, dated 2006)
